Measurements as given in PubChem BioAssay AID2060500 (Molecular Pharmacology Branch, DTP, NCI, 2025).

Tested on: 596521-263-R-J1-PDC complex spheroids, viability % of control
Test: Anticancer human tumor 596521-263-R-J1-PDC patient-derived soft tissue sarcoma cell line growth inhibition [GQUAD]
Settings: for IC50: curve of first compound; for viability, T/C: stronger effect = lower value
From the text: DNA G-quadruplex Stabilizer Agents in Combinations in Complex Spheroids
A high-throughput screen of multi-cell type tumor spheroids was designed to identify active combinations of DNA G-quadruplex stabilizer agents and targeted small molecules. Complex spheroids include a stromal component modeled by human endothelial cells (HUVEC) and fibroblasts modeled by human mesenchymal stem cells (MSCs). The concentration ranges selected for each drug and investigational agent were based upon clinically achievable concentrations if the clinical Cmax of the agent was known.
Compounds. The drugs and investigational agents: pidnarulex (CX-5461; NSC782164), APTO-253 (NSC789042), BRACO-19 (NSC847499), peposertib (NSC802822), ceralasertib (NSC780249), elimusertib (NSC800525), camonsertib (NSC841442), AZD-1390 (NSC803789), olaparib (NSC753686), talazoparib (NSC767125), ART-558 (NSC835418), sotorasib (NSC818433), MRTX-1133 (NSC836407), SN-38 (NSC673596), topotecan (NSC609699), etoposide (NSC141540), doxorubicin (NSC123127), gemcitabine (NSC613327), 5-fluorouracil (NSC19893), paclitaxel (NSC125973), vemurafenib (NSC761431), panobinostat (NSC761190), R-306465 (JNJ-16241199; NSC773264), adavosertib (NSC754352), TP-3654 (NSC805149), carboplatin (NSC241240), KSQ-4279 (NSC840948), and staurosporine (NSC755774) were obtained from the National Cancer Institute (NCI) Developmental Therapeutics Program Chemical Repository (34). The FDA-approved anticancer drug set is available from the NCI Developmental Therapeutics Program. […] The stock solutions were prepared in dimethyl sulfoxide (DMSO, Sigma-Aldrich, St. Louis, MO, cat. D2650) at 800-fold the tested concentration and stored at -70 degrees C prior to their use. All drugs and investigational agents were tested over a range starting from a high concentration at or near the clinical Cmax and decreasing in half-log increments. If the clinical Cmax for an agent had not been determined, the highest concentration tested was 10 microM.
2.3 Cell Culture. All cells were maintained in an incubator at 37 degrees C and 5% CO2 with 95% humidity. The PDC lines were cultured according to standard operating procedures established by the NCI PDMR. All PDCs were thawed and cultured in Matrigel-coated flasks prepared with a working solution of 1X Ham's F-12 nutrient mix, without supplementation (Invitrogen, cat. 11765054), 100 U/mL penicillin-streptomycin (Invitrogen, cat. 15140122), and 2.5% Matrigel (Corning Inc., cat. 354248) for the first three passages. The 857933-349-R-J2-PDC line was cultured in 6C/Colon 1B media, which includes advanced DMEM/F-12 (Thermo Fisher Scientific, cat. 12634028), 10 mM HEPES (Thermo Fisher Scientific, cat. 15630080), 1X GlutaMAX supplement (Thermo Fisher Scientific, cat. 35050061), 0.1 mg/mL primocin (InvivoGen, cat. ant-pm-2), 10% defined fetal bovine serum, heat inactivated (HyClone Laboratories Inc., cat. SH30070.03HI), 50% L-WRN conditioned media (ATCC, cat. CRL-3276), 1.25 mM N-Acetyl-L-cysteine (Sigma-Aldrich, cat. A9165), 10 mM nicotinamide (Sigma-Aldrich, cat. N0636), 1X B-27 supplement (Thermo Fisher Scientific, cat. 17504044), 1X N-2 supplement (Thermo Fisher Scientific, cat. 17502048), 10 microM Y-27632 dihydrochloride (Tocris Bioscience, cat. 1254), and 50 ng/mL human EGF recombinant protein (Thermo Fisher Scientific, cat. PHG0311). The 485176-168-R4-J1-PDC line was cultured in Panc media, which includes all 6C/Colon 1B media components plus 100 ng/mL human FGF-10 (Thermo Fisher Scientific, cat. 100-26), 500 nM SB-431542 (Selleckchem, cat. S1067), and gastrin (Tocris, cat. 3006).
[…]

[1] = second compound 0.0316 µM, first compound 0.0316 µM
[2] = second compound 0.0316 µM, first compound 0.316 µM
[3] = second compound 0.1 µM, first compound 0.0316 µM
[4] = second compound 0.1 µM, first compound 0.316 µM
[5] = second compound 0.316 µM, first compound 0.0316 µM
[6] = second compound 0.316 µM, first compound 0.316 µM
[7] = second compound 1 µM, first compound 0.0316 µM
[8] = second compound 1 µM, first compound 0.316 µM
[9] = second compound 3.16 µM, first compound 0.0316 µM
[10] = second compound 3.16 µM, first compound 0.316 µM
[11] = second compound 10 µM, first compound 0.0316 µM
[12] = second compound 10 µM, first compound 0.316 µM
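Note: spheroids exposed to drugs for 7 days before viability reading.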

Cc1[nH]c2ccccc2c1CCNCc1ccc(/C=C/C(=O)NO)cc1 + CN(C)c1ccc(Nc2c3ccc(NC(=O)CCN4CCCC4)cc3nc3cc(NC(=O)CCN4CCCC4)ccc23)cc1 was tested, and the IC50 (second compound 0.0316 µM) was 0.0466 µM, the IC50 (second compound 0.1 µM) was 0.0424 µM and the IC50 (second compound 0.316 µM) was 0.0318 µM. The IC50 (second compound 1 µM) was 0.0368 µM, the IC50 (second compound 3.16 µM) was 0.0249 µM and the IC50 (second compound 10 µM) was 0.0135 µM. The viability, T/C (second compound 0.0316 µM, first compound 0.000999 µM) was 102%, the viability, T/C (second compound 0.0316 µM, first compound 0.00316 µM) was 89.2% and the viability, T/C (second compound 0.0316 µM, first compound 0.00999 µM) was 79.8%. It also gave a viability, T/C [1] of 58.1%, a viability, T/C (second compound 0.0316 µM, first compound 0.0999 µM) of 32.9% and a viability, T/C [2] of 1.76%. The viability, T/C (second compound 0.1 µM, first compound 0.000999 µM) was 94.7%, the viability, T/C (second compound 0.1 µM, first compound 0.00316 µM) was 94.9% and the viability, T/C (second compound 0.1 µM, first compound 0.00999 µM) was 78.1%. For the same molecule, the viability, T/C [3] was 58.4%, the viability, T/C (second compound 0.1 µM, first compound 0.0999 µM) was 27.4% and the viability, T/C [4] was 2.91%. It also gave a viability, T/C (second compound 0.316 µM, first compound 0.000999 µM) of 102%, a viability, T/C (second compound 0.316 µM, first compound 0.00316 µM) of 81.3% and a viability, T/C (second compound 0.316 µM, first compound 0.00999 µM) of 77%. For the same molecule, the viability, T/C [5] was 50.4%, the viability, T/C (second compound 0.316 µM, first compound 0.0999 µM) was 22.8% and the viability, T/C [6] was 1.67%. It also gave a viability, T/C (second compound 1 µM, first compound 0.000999 µM) of 90.6%, a viability, T/C (second compound 1 µM, first compound 0.00316 µM) of 88.3% and a viability, T/C (second compound 1 µM, first compound 0.00999 µM) of 75.6%. For the same molecule, the viability, T/C [7] was 54.8%, the viability, T/C (second compound 1 µM, first compound 0.0999 µM) was 23.3% and the viability, T/C [8] was 1.36%. The viability, T/C (second compound 3.16 µM, first compound 0.000999 µM) was 78.6%, the viability, T/C (second compound 3.16 µM, first compound 0.00316 µM) was 82.4% and the viability, T/C (second compound 3.16 µM, first compound 0.00999 µM) was 64.7%. It also gave a viability, T/C [9] of 46.2%, a viability, T/C (second compound 3.16 µM, first compound 0.0999 µM) of 18.4% and a viability, T/C [10] of 1.06%. It also gave a viability, T/C (second compound 10 µM, first compound 0.000999 µM) of 62.2%, a viability, T/C (second compound 10 µM, first compound 0.00316 µM) of 53.7% and a viability, T/C (second compound 10 µM, first compound 0.00999 µM) of 57.4%. The viability, T/C [11] was 36.4%, the viability, T/C (second compound 10 µM, first compound 0.0999 µM) was 13.3% and the viability, T/C [12] was 0.5%.

In the case of Nc1ccn(C2OC(CO)C(O)C2(F)F)c(=O)n1 (centres undefined) + CN(C)c1ccc(Nc2c3ccc(NC(=O)CCN4CCCC4)cc3nc3cc(NC(=O)CCN4CCCC4)ccc23)cc1, the IC50 (second compound 0.0316 µM) is reported as under 0.0316 µM, the IC50 (second compound 0.1 µM) is reported as under 0.0316 µM and the IC50 (second compound 0.316 µM) is reported as 0.121 µM. For the same molecule, the IC50 (second compound 1 µM) was under 0.0316 µM, the IC50 (second compound 3.16 µM) was under 0.0316 µM and the IC50 (second compound 10 µM) was under 0.0316 µM. For the same molecule, the viability, T/C [1] was 48.3%, the viability, T/C (second compound 0.0316 µM, first compound 0.1 µM) was 39.2% and the viability, T/C [2] was 40.5%. The viability, T/C (second compound 0.0316 µM, first compound 1 µM) was 37.3%, the viability, T/C (second compound 0.0316 µM, first compound 3.16 µM) was 44.5% and the viability, T/C (second compound 0.0316 µM, first compound 10 µM) was 40.2%. The viability, T/C [3] was 53.9%, the viability, T/C (second compound 0.1 µM, first compound 0.1 µM) was 42.2% and the viability, T/C [4] was 40%. It also gave a viability, T/C (second compound 0.1 µM, first compound 1 µM) of 39.1%, a viability, T/C (second compound 0.1 µM, first compound 3.16 µM) of 44.1% and a viability, T/C (second compound 0.1 µM, first compound 10 µM) of 38.1%. It also gave a viability, T/C [5] of 53.6%, a viability, T/C (second compound 0.316 µM, first compound 0.1 µM) of 46.6% and a viability, T/C [6] of 48.7%. For the same molecule, the viability, T/C (second compound 0.316 µM, first compound 1 µM) was 49.8%, the viability, T/C (second compound 0.316 µM, first compound 3.16 µM) was 40.1% and the viability, T/C (second compound 0.316 µM, first compound 10 µM) was 39.4%. It also gave a viability, T/C [7] of 46.7%, a viability, T/C (second compound 1 µM, first compound 0.1 µM) of 41.5% and a viability, T/C [8] of 39.3%. The viability, T/C (second compound 1 µM, first compound 1 µM) was 42.2%, the viability, T/C (second compound 1 µM, first compound 3.16 µM) was 39% and the viability, T/C (second compound 1 µM, first compound 10 µM) was 40.5%. It also gave a viability, T/C [9] of 44.7%, a viability, T/C (second compound 3.16 µM, first compound 0.1 µM) of 44.2% and a viability, T/C [10] of 40.6%. It also gave a viability, T/C (second compound 3.16 µM, first compound 1 µM) of 42.5%, a viability, T/C (second compound 3.16 µM, first compound 3.16 µM) of 40.5% and a viability, T/C (second compound 3.16 µM, first compound 10 µM) of 35.6%. For the same molecule, the viability, T/C [11] was 42.4%, the viability, T/C (second compound 10 µM, first compound 0.1 µM) was 37.4% and the viability, T/C [12] was 33.4%. The viability, T/C (second compound 10 µM, first compound 1 µM) was 35.2%, the viability, T/C (second compound 10 µM, first compound 3.16 µM) was 38% and the viability, T/C (second compound 10 µM, first compound 10 µM) was 38.2%.
